Entries after “also recorded” stand apart in the source; their conditions may differ.
Legend:
[1] = healthy ileostomy volunteers, cited from earlier work
[2] = oral 1.5 mg/mouse, cited from earlier work
KKAy mice = assay: 10 week dietary intervention study in diabetic KKAy mice; assay type: in vivo; settings: 10 weeks; for Fasting plasma glucose compared to the control group: in food pellets
Procedure: (§1) The effects of cafestol were investigated in a 10 week dietary intervention study in a type 2 diabetic animal model. Five weeks old male KKAy mice were randomly assigned to either of three intervention groups (n=12 per group), i.e. 1) Control (no cafestol added), 2) supplementation with 0.382 mg/day of cafestol/kg mice, and 3) supplementation with 1.146 mg/day of cafestol/kg mice. The cafestol was added to food pellets daily. At the beginning of the study (week 0) fasting blood glucose, insulin and lipids (total cholesterol, LDL, HDL and triglycerides) were measured. Every 2nd week fasting blood glucose, body weight and food intake was measured. At the end of the intervention (week 10) fasting blood glucose, insulin, glucagon and lipids (total cholesterol, LDL-cholesterol, HDL-cholesterol) were measured. The pancreas was removed and treated with collagenase and subsequently, the effects on insulin secretory capacity was studied in isolated islets of Langerhans. Furthermore, gene expression levels of key regulatory genes in liver, fat and muscle tissues were measured using RT-PCR.

INS-1E cells [3] = assay: Chronic (72 hours) insulin secretion from INS-1E cells; assay type: cell-based, rat; settings: low glucose level (FIG. 2)
INS-1E cells [4] = assay: as above; assay type: cell-based, rat; design: unit not given here
Procedure: INS-1E cells were seeded onto 24 well plates and incubated for 72 hours in RPMI 1640 supplemented with cafestol. After 72 hours the buffer was changed to a modified Krebs Ringer buffer and the cells were incubated for 60 min at low (3.3 mM) and high (16.7 mM) glucose. Hereafter the medium was removed for later insulin analysis using a sensitive rat insulin kit from Linco.

INS-1E cells [5] = assay: Acute insulin secretion from INS-1E cells; assay type: cell-based, rat; design: Insulin secretion, Mean: unit not given here; settings: for Insulin secretion, Mean: 16.7 mM glucose, 60 min
Procedure: INS-1E cells were seeded onto 24 well plates before incubation experiments. At the day of the experiment the buffer was changed to a modified Krebs-Ringer-buffer and the cells were preincubated in the same buffer for 60 min. […]

[6] = test system: isolated islets of Langerhans; assay: Insulin secretion experiment with isolated islets of Langerhans from KKAy mice after 10 weeks intervention; assay type: in vivo
Procedure: as §1

[7] = test system: Human skeletal muscle cells; assay: Acute glucose uptake in human skeletal muscle cell line; assay type: cell-based; settings: 100 nM insulin, 15 minutes
Procedure: Human skeletal muscle cells were seeded in 24 wells, ([…] cells/well) containing 1 mL growth medium (Promocell, Heidelberg, Germany). Once 70-90% confluence was reached, the growth medium was replaced by 1 mL differentiation medium (Promocell, Heidelberg, Germany). This medium was changed every 2nd day for two weeks until multinucleated syncytia was visible in microscope. Cells were washed twice with PBS. 300 μL of an alternatively modified-Krebs Ringer Buffer (containing 0.1% BSA with 0.1 mM glucose, 1.5 μCi deoxy-d-glucose 2-[1,2-3H(M)] (Perkin Elmer, 2740 Skovlunde, Denmark) and 100 nM insulin was put in each well. Five types of solutions were prepared: one with […] cafestol or rosiglitazone (control), a second with a 10^−6 M cafestol, a third with a 10^−10 M cafestol, a fourth with a 10^−12 M cafestol, and a fifth with a 10^-8 M rosiglitazone. Cells were kept on ice while adding medium. After 15 minutes of incubation at 37° C., 5.0% CO2, cells were washed twice with the modified-Krebs Ringer Buffer supplemented with 0.1% BSA and 50 mM glucose, stopping the incubation and glucose uptake. Hereafter, 0.2 mL 0.1 M NaOH was added to each well for a 30 minute room temperature incubation. 0.1 mL was transferred from each well to a 24 well counting plate (Wallac Oy, Turku, Finland). After adding 0.9 mL Hisafe II scintillator (Perkin Elmer, 2740 Skovlunde, Denmark), plates were stored in the dark for 12 hours before counted using a Trilux Micro Beta Counter (Wallac Oy, Turku, Finland). “Counts per minute” is a direct measure of glucose uptake.

Which results are given for C[C@@]12CCc3occc3[C@H]1CC[C@@]13C[C@@H](CC[C@H]12)[C@@](O)(CO)C3 [Cafestol]?
Absorbed from the gastrointestinal tract ([1]; estimated from recovery in ileostomy effluent): approximately 70%; Dose recovered in urine [1]: approximately 1%; Parent compound as share of activity present in portal blood ([2]; 50 min after administration): 70%; Parent compound as share of total radioactivity present in portal blood ([2]; two minutes after dosing): 50%; Fasting plasma glucagon compared to Control (KKAy mice; High cafestol group 1.146 mg/day/kg): significant decreased; Fasting plasma glucose compared to the control group (KKAy mice; high concentration 1.146 mg/day/kg): significantly decreased; also recorded: decrease fasting plasma glucose significantly; HOMA-IR compared to control group (KKAy mice; high dose of cafestol, p=0.03): significantly reduced; also recorded: significant decrease; Fasting plasma glucose compared to the control group (KKAy mice; low concentration 0.382 mg/day/kg): significantly decreased; also recorded: decrease fasting plasma glucose significantly; HOMA-IR compared to control group (KKAy mice; low dose of cafestol): tendency to be reduced; Glucagonostatic effect (INS-1E cells [3]): significant glucagonostatic effect; Insulin secretion, Mean (INS-1E cells [4]; 3.3 mM glucose, 72 hours incubation with cafestol 10^−8 M): 0.7482; Insulin secretion, Mean (INS-1E cells [4]; 3.3 mM glucose, 72 hours incubation with cafestol 10^−8 M, listed as cafestol): stimulatory effect; Insulin secretion, Mean (INS-1E cells [4]; 3.3 mM glucose, 72 hours incubation with cafestol 10^−10 M): 0.5853; Insulin secretion, Mean (INS-1E cells [4]; 3.3 mM glucose, 72 hours incubation with cafestol 10^−10 M, listed as cafestol): neutral effect; Insulin secretion, Mean (INS-1E cells [4]; 3.3 mM glucose, 72 hours incubation with cafestol 10^−12 M): 0.4999; Insulin secretion, Mean (INS-1E cells [4]; 3.3 mM glucose, 72 hours incubation with cafestol 10^−12 M, listed as cafestol): significantly decreased; Insulin secretion, Mean (INS-1E cells [4]; 16.7 mM glucose, 72 hours incubation with cafestol 10^−8 M): 1.661; Insulin secretion, Mean (INS-1E cells [4]; 16.7 mM glucose, 72 hours incubation with cafestol 10^−8 M, listed as cafestol): significant increase; Insulin secretion, Mean (INS-1E cells [4]; 16.7 mM glucose, 72 hours incubation with cafestol 10^−10 M): 1.322; Insulin secretion, Mean (INS-1E cells [4]; 16.7 mM glucose, 72 hours incubation with cafestol 10^−10 M, listed as cafestol): significant increase; Insulin secretion, Mean (INS-1E cells [4]; 16.7 mM glucose, 72 hours incubation with cafestol 10^−12 M): 0.9279; Insulin secretion, Mean (INS-1E cells [5]; cafestol 10^−6 M): 0.9013; Insulin secretion, Mean (INS-1E cells [5]; cafestol 10^−8 M): 0.8682; Insulin secretion, Mean (INS-1E cells [5]; cafestol 10^−10 M): 0.8715; Insulin secretion, Mean (INS-1E cells [5]; cafestol 10^−12 M): 0.8261; Insulin secretion (change vs glucose alone) (INS-1E cells [5]; high glucose, concentrations ranging from 10^−10 M to 10^−6 M): significant increase; Glucose sensitivity of islets (insulin secretion) compared to Control ([6]; after 10 weeks intervention with cafestol): more glucose sensitive; Insulin stimulation at low glucose concentration ([6]; islets after 10 weeks intervention, low glucose): not present; Glucose uptake, Counts per minute (± in SEM) ([7]; 10^−8 M): 157.2 ± 2.318 Counts per minute; Glucose uptake, Counts per minute (± in SEM) ([7]; 10^−8 M, listed as cafestol): significantly increased; Glucose uptake, Counts per minute (± in SEM) ([7]; 10^−10 M): 151.0 ± 2.104 Counts per minute; Glucose uptake, Counts per minute (± in SEM) ([7]; 10^−12 M): 146.3 ± 1.839 Counts per minute
